Source: the supplement of paper PMC3937590

Columns and labels:
Assay in all cases: -log10 GI50 (growth inhibition 50%) (-log10(M)); higher = more potent growth inhibition
MCF12A = tested on: MCF12A
Method in brief: (§1)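 Breast cancer cell lines were exposed to each compound for 72 hours at nine doses in 1:5 serial dilution, in triplicate, with a luminescence read-out against a time-zero plate. A Gompertz curve was fitted to the dose-response data by nonlinear least squares. The value is minus log10 of GI50, the molar concentration giving the set level of growth inhibition. Values equal to the top dose carry a < qualifier.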

BT483 = tested on: BT483
Method in brief: as §1

MDAMB415 = tested on: MDAMB415
Method in brief: as §1

MDAMB361 = tested on: MDAMB361
Method in brief: as §1

SUM149PT = tested on: SUM149PT
Method in brief: as §1

SUM229PE = tested on: SUM229PE
Method in brief: as §1

SKBR3 = tested on: SKBR3
Method in brief: as §1

SUM159PT = tested on: SUM159PT
Method in brief: as §1

MCF10F = tested on: MCF10F
Method in brief: as §1

HS578T = tested on: HS578T
Method in brief: as §1

LY2 = tested on: LY2
Method in brief: as §1

MDAMB175VII = tested on: MDAMB175VII
Method in brief: as §1

184A1 = tested on: 184A1
Method in brief: as §1

HCC1954 = tested on: HCC1954
Method in brief: as §1

HCC1187 = tested on: HCC1187
Method in brief: as §1

T47D = tested on: T47D
Method in brief: as §1

MDAMB231 = tested on: MDAMB231
Method in brief: as §1

HCC70 = tested on: HCC70
Method in brief: as §1

UACC812 = tested on: UACC812
Method in brief: as §1

HCC38 = tested on: HCC38
Method in brief: as §1

Row | SMILES | -log10 GI50 (MCF12A) | -log10 GI50 (BT483) | -log10 GI50 (MDAMB415) | -log10 GI50 (MDAMB361) | -log10 GI50 (SUM149PT) | -log10 GI50 (SUM229PE) | -log10 GI50 (SKBR3) | -log10 GI50 (SUM159PT) | -log10 GI50 (MCF10F) | -log10 GI50 (HS578T) | -log10 GI50 (LY2) | -log10 GI50 (MDAMB175VII) | -log10 GI50 (184A1) | -log10 GI50 (HCC1954) | -log10 GI50 (HCC1187) | -log10 GI50 (T47D) | -log10 GI50 (MDAMB231) | -log10 GI50 (HCC70) | -log10 GI50 (UACC812) | -log10 GI50 (HCC38)
1 | O=c1cc(-c2ccccc2)oc2cc(O)c(O)c(O)c12 [Baicalein] | 4.78 | 4.44 | < 3.78 | < 3.78 | 4.29 | 4.08 | 3.96 | 3.82 | < 3.78 | 4.32 | 4.19 | 3.96 | < 3.78 | < 3.78 | 4.94 | 4.52 | 4.75 | 4.31 | 4.19 | 4.52
2 | O=C1NC(=O)/C(=C/c2ccc3nccc(-c4ccncc4)c3c2)S1 | 6.38 | 6.8 | 6.26 | 5.92 | 6.01 | 6.26 | 6.82 | 6.72 | 6.71 | 5.74 | 5.87 | 6.33 | 7.78 | 6.68 | 6.84 | 6.95 | 5.21 | 6.75 | 6.62 | 6.11
3 | O=C1NC(=O)/C(=C/c2ccc(-c3ccc(F)cc3O)o2)S1 | 4.68 | 4.77 | < 4.48 | 4.78 | 5 | < 4.18 | 4.4 | 5.23 | < 4.48 | 5.06 | 4.51 | 5.29 | 5.43 | 5.46 | 5.77 | 5.25 | < 4.48 | 4.67 | 4.88 | < 4.18
4 | C#Cc1cccc(Nc2ncnc3cc(OCCOC)c(OCCOC)cc23)c1 [Erlotinib] | 6.27 | 4.78 | < 4.18 | < 4.18 | 5.7 | 4.95 | 4.8 | 4.93 | 6.54 | < 4.18 | < 4.18 | 5.52 | 6.64 | 5.55 | 5.12 | < 4.18 | 4.33 | 5.76 | 4.91 | < 4.18
5 | O=C1C(Cl)=C(NCCN2CCOCC2)C(=O)c2ncccc21 | 5.76 | 6.19 | 5.59 | 5.27 | 5.69 | 5.26 | 5.86 | 5.76 | 5.6 | 5.7 | 6.27 | 5.3 | 5.82 | 5.22 | 5.73 | 5.19 | 5.14 | 5.52 | 5.6 | 5.64
6 | C[C@@H](Oc1cc(-n2cnc3ccc(CN4CCN(C)CC4)cc32)sc1C(N)=O)c1ccccc1C(F)(F)F | 6.14 | 5.35 | 7.15 | 8.72 | 7.96 | 7.68 | 6.92 | 7.49 | 7.11 | 7.71 | 5.8 | 5.21 | 5.18 | 8.16 | 7.48 | 5.56 | 7.75 | 7.78 | 4.99 | –
7 | CCCCCN(C)CCC(O)(P(=O)(O)O)P(=O)(O)O [Ibandronate sodium] | 3.73 | 4.24 | 4.29 | 4.83 | 3.76 | 4.27 | 4.05 | 4.37 | 3.81 | 5.03 | 3.9 | 4.47 | 3.81 | 4.26 | 3.77 | 4.46 | 4.21 | 4.2 | 3.83 | 4.3
8 | NS(=O)(=O)OC[C@@H]1C[C@@H](n2ccc3c(N[C@H]4CCc5ccccc54)ncnc32)C[C@@H]1O [MLN4924] | 7.04 | 5.53 | 6.95 | 7.03 | 6.73 | 6.59 | 6.82 | 6.31 | 6.2 | 6.63 | 7 | 6.64 | 6.24 | 5.35 | 6.09 | 6.93 | 7.03 | 5.47 | 5.98 | 7.3
9 | CC(/C=C/C(=O)NO)=C\[C@@H](C)C(=O)c1ccc(N(C)C)cc1 [Trichostatin A] | 4.71 | 5 | 4.73 | 5.09 | 5.14 | 4.83 | 5.21 | 5.23 | 4.22 | 4.77 | 4.99 | 5.3 | 4.73 | 4.96 | 5.32 | 5.46 | 5.26 | 4.84 | 5.05 | 5.22
10 | CNC(=O)c1c(F)cccc1Nc1nc(Nc2cc3c(cc2OC)CCN3C(=O)CN(C)C)nc2[nH]ccc12 | 5.74 | 5.49 | 5.32 | 4.84 | 5.41 | 6.2 | 4.99 | 5.47 | 6.31 | 4.91 | 6.27 | 5.29 | 6.4 | 5.06 | 5.65 | 5.02 | 5.32 | 5.18 | 5.31 | 5
11 | Cc1ccc(NC(=O)c2ccc(CN3CCN(C)CC3)cc2)cc1Nc1nccc(-c2cccnc2)n1 [Imatinib] | 4.37 | 3.82 | 4.64 | 4.57 | 4.67 | 5.27 | 4.63 | 4.75 | 4.71 | 4.1 | 4.65 | 5.01 | 4.86 | 5.04 | 4.6 | 4.79 | 4.82 | 4.77 | 4.98 | 4.45
12 | CC(=O)Nc1cccc(-n2c(=O)n(C3CC3)c(=O)c3c(Nc4ccc(I)cc4F)n(C)c(=O)c(C)c32)c1 | 8.68 | < 4.78 | 6.19 | < 4.78 | 7.64 | 8.17 | < 4.78 | 7.93 | 8.06 | 7.47 | < 4.78 | 7.88 | 8.67 | 6.79 | < 4.78 | < 4.78 | 6.86 | 8.18 | < 4.78 | < 4.78
